Measured values as given in patent publication US5624932A (priority 1995, dated 1997).
Entries after “also recorded” stand apart in the source; their conditions may differ.

Experiments:
[1] = tested on: dorsal root ganglion (DRG) neurons; format: cell-based, mouse
[2] = tested on: morphine-dependent rats; set-up: species or system Wistar rats; settings: rat, in vivo
[3] = tested on: morphine-dependent monkeys; set-up: species or system rhesus monkeys (Macaca mulatta); settings: rhesus monkey, in vivo
[4] = tested on: opiate addicts; settings: in vivo
[5] = tested on: morphine-dependent monkeys; settings: rhesus monkey, in vivo
[6] = tested on: chronic opioid-treated DRG neurons; format: cell-based, mouse
[7] = tested on: dorsal root ganglion (DRG) neurons; settings: nM-μM; cited from earlier work
[8] = in vivo; cited from earlier work

CN1CC[C@]23CCCC[C@H]2[C@H]1Cc1ccc(O)cc13 [Levorphenol]
Alteration of action potential duration, opioid at high concentration [1]: Shortening | Alteration of action potential duration, opioid at low concentration [1]: Prolongation

CCC(=O)C(CC(C)N(C)C)(c1ccccc1)c1ccccc1 (stereo not shown) [Methadone, methadone]
Alteration of action potential duration, opioid at high concentration [1]: inhibitory APD-shortening | Alteration of action potential duration, opioid at low concentration [1]: excitatory APD-prolonging; also recorded: Prolongation | prevention of body weight loss [2]: 48.15% | suppression of other withdrawal symptoms [2]: 49.4% | effect on naloxone induced withdrawal symptoms ([2]; ip): suppressed | effect on body weight loss ([2]; sc): prevent further body weight loss | second naloxone test, withdrawal symptoms ([2]; sc): less severe withdrawal symptoms in comparison to the morphine group, yet more severe when compare with the DHE group | significance of effect on body weight loss vs untreated (saline) control ([2]; sc): highly significant | Scores of withdrawal syndromes, 1st naloxone precipitation (X ± SD) [3]: 17.0 ± 4.6 | Scores of withdrawal syndromes, 2nd naloxone precipitation (X ± SD) [3]: 1.3 ± 1.2 | naloxone precipitation test on day 9 [3]: naloxone precipitated withdrawal symptoms | naloxone withdrawal symptoms after maintenance or substitution treatment [3]: moderate naloxone withdrawal symptoms | withdrawal symptoms between injections during substitution [3]: some moderate withdrawal symptoms | withdrawal symptoms during the first several days of substitution [3]: partially suppressed | addiction resulting from substitution treatment [4]: invariably results in transfer to methadone addiction | rebound of withdrawal symptoms [4]: often results in the rebound of withdrawal symptoms | side effects during substitution treatment [4]: negligible | time before symptomatic relief [4]: one to several

CN1CC[C@]23c4c5ccc(O)c4O[C@H]2[C@@H](O)C=C[C@H]3[C@H]1C5 [Morphine, morphine]
prevention of body weight loss [2]: 43.5% | suppression of other withdrawal symptoms [2]: 45.5% | time to complete recovery of weight loss ([2]; sc): 48 h | time to reversal of body weight loss ([2]; sc): 3 h | time after withdrawal at which withdrawal symptoms began [5]: Sixteen

C=CCN1CC[C@]23c4c5ccc(O)c4O[C@H]2C(=O)CC[C@@]3(O)[C@H]1C5 [naloxone]
naloxone effect on APD of chronic opioid-treated DRG neurons [6]: excitatory APD-prolonging effect; also recorded: prolongs the APD | peak response of naloxone induced withdrawal symptoms ([2]; ip, 4 mg/kg): ≤ 15 min | time of maximum body weight loss after naloxone precipitation ([2]; ip, 4 mg/kg): 24 h | time to gradual weight recovery after naloxone precipitation ([2]; ip, 4 mg/kg): 90 h | effect of naloxone on the APD of naive DRG neurons [7]: does not alter the APD; also recorded: ineffective | oral or sublingual bioavailability [8]: low
